According to the supplement of paper PMC10307832:

How the values were obtained:
Assay in all cases: relative viability (nuclei count vs DMSO), 5 days (fraction); higher = more cells survive
Dactolisib + Trametinib = compound: Cn1c(=O)n(-c2ccc(C(C)(C)C#N)cc2)c2c3cc(-c4cnc5ccccc5c4)ccc3ncc21 [Dactolisib] + CC(=O)Nc1cccc(-n2c(=O)n(C3CC3)c(=O)c3c(Nc4ccc(I)cc4F)n(C)c(=O)c(C)c32)c1 [Trametinib] (partner 0.02 µM)
Outline: (§1)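 One day after seeding in 1536-well plates, lung cancer cell lines were dosed by pin tool. Dosing was either single-drug or a fixed anchor-drug dose plus five library-drug doses (not always all listed) in √10 steps. After 5 days, nuclei were stained in one fix-and-stain step and counted on 4× images, and relative viability is the nuclei count of treated wells over that of vehicle wells, given as the median of duplicate plates.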

Dactolisib + AZD7762 = compound: Cn1c(=O)n(-c2ccc(C(C)(C)C#N)cc2)c2c3cc(-c4cnc5ccccc5c4)ccc3ncc21 [Dactolisib] + NC(=O)Nc1cc(-c2cccc(F)c2)sc1C(=O)N[C@H]1CCCNC1 [AZD7762] (partner 0.2 µM)
Outline: as §1

AZ505 + Decitabine = compound: C1CCC(CC1)N(CCNCCC2=C3C(=C(C=C2)O)NC(=O)CO3)C(=O)CCNCCC4=CC(=C(C=C4)Cl)Cl [AZ505] + Nc1ncn([C@H]2C[C@H](O)[C@@H](CO)O2)c(=O)n1 [Decitabine] (partner 2 µM)
Outline: as §1

AZ505 + Pictilisib = compound: C1CCC(CC1)N(CCNCCC2=C3C(=C(C=C2)O)NC(=O)CO3)C(=O)CCNCCC4=CC(=C(C=C4)Cl)Cl [AZ505] + CS(=O)(=O)N1CCN(Cc2cc3nc(-c4cccc5[nH]ncc45)nc(N4CCOCC4)c3s2)CC1 [Pictilisib] (partner 1 µM)
Outline: as §1

| Cell Line | relative viability (Dactolisib + Trametinib; first compound 0.002 µM) | relative viability (Dactolisib + Trametinib; first compound 0.006325 µM) | relative viability (Dactolisib + Trametinib; first compound 0.02 µM) | relative viability (Dactolisib + Trametinib; first compound 0.06325 µM) | relative viability (Dactolisib + Trametinib; first compound 0.2 µM) | relative viability (Dactolisib + AZD7762; first compound 0.002 µM) | relative viability (Dactolisib + AZD7762; first compound 0.006325 µM) | relative viability (Dactolisib + AZD7762; first compound 0.02 µM) | relative viability (Dactolisib + AZD7762; first compound 0.06325 µM) | relative viability (Dactolisib + AZD7762; first compound 0.2 µM) | relative viability (AZ505 + Decitabine; first compound 0.08 µM) | relative viability (AZ505 + Decitabine; first compound 0.253 µM) | relative viability (AZ505 + Decitabine; first compound 0.8 µM) | relative viability (AZ505 + Decitabine; first compound 2.53 µM) | relative viability (AZ505 + Decitabine; first compound 8 µM) | relative viability (AZ505 + Pictilisib; first compound 0.08 µM) | relative viability (AZ505 + Pictilisib; first compound 0.253 µM) | relative viability (AZ505 + Pictilisib; first compound 0.8 µM) | relative viability (AZ505 + Pictilisib; first compound 2.53 µM) | relative viability (AZ505 + Pictilisib; first compound 8 µM) |
| --- | --- | --- | --- | --- | --- | --- | --- | --- | --- | --- | --- | --- | --- | --- | --- | --- | --- | --- | --- | --- |
| 201T | 0.73 | 0.713 | 0.688 | 0.668 | 0.449 | 0.578 | 0.64 | 0.613 | 0.464 | 0.402 | 0.857 | 0.863 | 0.812 | 0.877 | 0.824 | 0.651 | 0.678 | 0.613 | 0.633 | 0.674 |
| A549 | – | – | – | – | – | – | – | – | – | – | – | 0.264 | 0.295 | 0.22 | 0.284 | 0.461 | 0.569 | 0.519 | 0.585 | 0.59 |
| A-427 | 0.669 | 0.637 | 0.694 | 0.4 | 0.369 | 0.749 | 0.698 | 0.688 | 0.498 | 0.306 | 0.58 | 0.551 | 0.488 | 0.525 | 0.574 | 0.693 | 0.514 | 0.566 | 0.726 | 0.741 |
| ABC-1 | – | – | – | – | – | 0.925 | 0.805 | 0.738 | 0.761 | 0.557 | 1.07 | – | 1.11 | 0.938 | 1.04 | 0.711 | 0.618 | 0.759 | 0.662 | 0.57 |
| BEN | 0.925 | 0.952 | 0.959 | 0.61 | 0.411 | 0.781 | 0.645 | 0.547 | 0.588 | 0.41 | 0.714 | 0.655 | 0.752 | 0.768 | 0.78 | 0.498 | 0.611 | 0.565 | 0.599 | 0.622 |
| CAL-12T | 0.343 | 0.312 | 0.248 | 0.213 | 0.184 | 0.573 | 0.691 | 0.638 | 0.424 | 0.357 | – | – | – | – | – | 0.445 | 0.355 | 0.559 | 0.432 | 0.512 |
| COR-L23 | 0.602 | 0.453 | 0.305 | 0.176 | 0.144 | – | – | – | – | – | 0.378 | 0.449 | 0.381 | 0.458 | 0.443 | 0.546 | 0.741 | 0.486 | 0.686 | 0.535 |
| COR-L 105 | 0.43 | 0.413 | 0.4 | 0.425 | 0.394 | – | – | – | – | – | 0.375 | 0.653 | 0.591 | 0.637 | 0.729 | 0.368 | 0.391 | 0.375 | 0.355 | 0.497 |
| Calu-6 | – | – | – | – | – | – | – | – | – | – | – | – | – | – | – | 0.835 | 0.989 | 0.884 | 0.905 | 0.867 |
| ChaGo-K-1 | 0.846 | 0.912 | 0.91 | 0.813 | 0.791 | 0.913 | 0.845 | 0.811 | 0.877 | 0.814 | 0.51 | 0.529 | 0.478 | 0.541 | 0.517 | 0.824 | 0.58 | 0.691 | 0.819 | 0.901 |
| EBC-1 | – | – | – | – | – | – | – | – | – | – | – | – | – | – | – | 0.374 | 0.375 | 0.345 | 0.354 | 0.328 |
| EKVX | 0.368 | 0.377 | 0.258 | 0.229 | 0.213 | 0.693 | 0.73 | 0.659 | 0.589 | 0.303 | – | 0.35 | 0.318 | 0.349 | 0.349 | 0.388 | 0.466 | 0.425 | 0.446 | 0.501 |
| EMC-BAC-2 | 0.897 | 0.866 | 0.839 | 0.461 | 0.375 | 1.14 | 0.955 | 0.984 | 0.662 | 0.607 | 0.938 | – | 0.862 | 0.924 | 0.943 | 0.485 | 0.523 | 0.505 | 0.471 | 0.507 |
| EPLC-272H | 0.264 | 0.261 | 0.28 | 0.245 | 0.201 | 0.218 | 0.273 | 0.249 | 0.165 | 0.148 | 0.35 | 0.352 | 0.305 | 0.343 | 0.354 | 0.255 | 0.306 | 0.285 | 0.256 | 0.289 |
| H3255 | 0.657 | 0.58 | 0.507 | 0.539 | 0.455 | 0.921 | 0.963 | 0.803 | 0.828 | 0.551 | – | 0.607 | 0.583 | 0.6 | 0.925 | 0.395 | 0.39 | 0.48 | 0.424 | 0.598 |
| HARA | 0.872 | 0.549 | 0.732 | 0.259 | 0.218 | 0.271 | 0.463 | 0.59 | 0.438 | 0.27 | 0.302 | – | 0.41 | 0.482 | 0.408 | 0.267 | 0.399 | 0.287 | 0.228 | 0.264 |
| HCC-15 | 0.383 | 0.346 | 0.365 | 0.215 | 0.162 | 1.18 | 1.02 | 1.26 | 1.13 | 0.971 | 0.566 | 0.627 | 0.587 | 0.705 | 0.678 | 0.658 | 0.657 | 0.712 | 0.462 | 0.71 |
| HCC-44 | 1.14 | 1.13 | 1.08 | 0.952 | 0.737 | 1.03 | 1.03 | 0.951 | 1.07 | 1.14 | 0.902 | 1.03 | 0.869 | 1.01 | 0.945 | 0.635 | 0.716 | 0.479 | 0.669 | 0.601 |
| HCC-78 | 0.726 | 0.851 | 0.69 | 0.445 | 0.312 | 0.627 | 0.712 | 0.553 | 0.484 | 0.242 | – | – | 0.738 | 0.705 | 0.801 | – | 0.219 | 0.179 | 0.264 | 0.289 |
